Source: patent US20240285700A1, “COMBINATION OF AN ONCOLYTIC VIRUS, AN ANTI-PD-1 INHIBITOR AND AN ACTIVATOR OF THE INNATE IMMUNE SYSTEM FOR USE IN THE TREATMENT OF PROSTATE CANCER” (priority 2021, published 2024)
“Also recorded” adds a separate entry of the source. Where two headings read alike, the source gives them in different places.

Legend:
sarcoma SA-1 = sarcoma SA-1 in syngeneic mice, glucan treatment; type: in vivo, A strain mice
Source text: To decide whether the ß(1,3) glucan regression was peculiar to the Meth A tumor, we also performed experiments with sarcoma SA-1, syngeneic in A strain mice.

lethal virus infection = test: protection against lethal virus infection in mice; type: in vivo; details: not published
Source text: Following advanced experiment on carbohydrate chemistry at the Institute of Wood Chemistry at the University of Uppsala, the inventor was able to provide a water soluble, stimulatory aminated ß(1,3) glucan by treatment of natural, insoluble ß(1,3) with chloroacetaldehyde dimethyl acetal followed by reductive amination (3). The aminated ß(1,3) glucan derivative activated macrophages and thereby protected against otherwise lethal bacterial peritonitis in mice (4), as well as lethal virus infection in mice (not published).

macrophages = details: more than forty polysaccharides tested; cited from earlier work
Meth A sarcoma = Meth A sarcoma implanted in the skin of mice, glucan treatment; type: in vivo, hybrid CB6 F1 (Balb/c×C 57131/6) mice
Method: Meth A sarcoma was inoculated in the skin of hybrid CB6 F1 (Balb/c×C 57131/6) and grew progressive in immunized animals. […] When 5 mg of pure water-soluble aminated ß(1,3) glucan was injected intravenously or intraperitoneally on day 7, there was an almost immediate visible effect.

[1] = tested on: lethal bacterial peritonitis; details: mice, cited from earlier work

**Q.** For aminated ß(1,3) glucan, which “cases in which tumors reappeared and resumed growth” value (sarcoma SA-1; after 18-21 days) is on record?
**A.** The value was “about one third”.

**Q.** What about the “tumor regression compared with Meth A results” value (sarcoma SA-1; sarcoma SA-1, A strain mice) of the same substance?
**A.** The value was “essentially identical”.

**Q.** What about the “protection against lethal virus infection” value (lethal virus infection) of the same substance?
**A.** Its value is “protected”.

**Q.** And the “ability to stimulate macrophages in vitro” value (macrophages)?
**A.** Its value is “stimulatory”.

**Q.** And the “tumor appearance 1 hour after injection” value (Meth A sarcoma; 5 mg intravenously on day 7, saline tumors reddish and bulging)?
**A.** The value was “collapsed and whitish-grey”.

**Q.** What about the “histological examination of tumor site” value (Meth A sarcoma; glucan-treated animals) of the same substance?
**A.** Its value is “acute inflammation around the tumor”.

**Q.** What about the “effect on tumor in non-immunized animals or treated on day 1, 3” value (Meth A sarcoma; non-immunized animals, or treatment on day 1, 3) of the same substance?
**A.** Its value is “little or no effect”.

**Q.** And the “condition of the animals after 200 days” value (Meth A sarcoma; one injection on day 7)?
**A.** The value was “unaffected and vital”.

**Q.** What about the “tumor at day 18-21 after inoculation” value (Meth A sarcoma; one injection on day 7 (5 mg i.v. or i.p.)) of the same substance?
**A.** Its value is “No visible tumor; also recorded: completely replaced by scar tissue”.

**Q.** What about the “effect on tumor in TxB animals” value (Meth A sarcoma; thymectomized, x-ray irradiated and bonemarrow transplanted, day 8-14) of the same substance?
**A.** Its value is “no effect”.

**Q.** What about the “protection against otherwise lethal bacterial peritonitis” value [1] of the same substance?
**A.** Its value is “protected”.

**Q.** And the “protection against otherwise lethal bacterial peritonitis” value ([1]; listed as ß(1,3) glucan)?
**A.** Its value is “sufficient to prevent a lethal outcome”.
